Experimental data from patent publication US20230265391A1, “METHODS AND COMPOSITIONS FOR MAKING AND USING ENDOCARDIAL CELLS” (University Health Network, priority 2020, published 2023).

Key:
Format in all cases: cell-based, human
NKX2-5+ CD31+ cells [1] = assay: Generation of NKX2-5+ CD31+ cells from hPSC-derived cardiogenic mesoderm (flow cytometry)
Procedure: To generate endocardial/endothelial cells, hPSCs were differentiated to cardiogenic mesoderm using the protocol described above. At day 3, the EBs were dissociated with TrypLE for 3 min at 37° C. and the cells plated in 96-well flat bottom microplates (Falcon) coated with Matrigel (25% v/v, Corning) at a density of 10e5 cells per well. The monolayers were cultured in StemPro-34 supplemented with penicillin/streptomycin (1%, ThermoFisher), L-glutamine (2 mM, ThermoFisher), ascorbic acid (50 μg/ml, Sigma), monothioglycerol (50 μg/ml, Sigma), transferrin (150 μg/ml, ROCHE) and rhbFGF (50 ng/ml, R&D). For endocardial induction, rhBMP10 (10 ng/ml) was added to the media from day 5 to day 9. For generation of control endothelial cells, VEGFA (100 ng/mL, R&D) was added to the differentiation media from day 3 to day 9. The cultures were incubated in a low oxygen environment (5% CO2, 5%O2, 90% N2) and the media was changed every 2 days. At day 9, HES3-NKX2-5eGFP/w-derived endocardial/endothelial cells were analyzed and isolated based on the expression of NKX2-5:GFP and CD31. The endocardial cells generated from the non-transgenic hPSC lines were analyzed and isolated as CD31+ populations. For dissociation, the monolayers were incubated in Collagenase type 2 (1 mg/ml, Worthington) in HANKs buffer at 37° C. for one hour.
Day 3 EBs were dissociated with TrypLE for 3 min at 37° C. Day 9-23 EBs or mixed populations of cardiomyocytes and endocardial/endothelial cells were dissociated by incubation in Collagenase type 2 (1 mg/ml, Worthington) in HANKS buffer at 37° C. for one hour followed by TrypLE treatment (5 min at 37° C.). The following antibodies were used for staining: anti-SIRPA-PeCy7 (Biolegend, 1:1000), anti-CD31-PE (BD Pharmingen, 1:100), anti-CD31-FITC (BD Pharmingen, 1:100), anti-CD31-AF647 (BD Pharmingen, 1:100), anti-CD90-APC (BD Pharmingen, 1:1000), anti-PDGFRB-BV421 (BD Pharmingen, 1:100), anti-CD105-APC (eBioscience, 1:200), anti-CD56-APC (BD Pharmingen, 1:100), anti-PDGFRA-PE (BD Pharmingen, […]), anti-CD36-APC (Biolegend, 1:100), anti-LDLR-BV421 (Biolegend, 1:100), anti-cardiac isoform of CTNT (ThermoFisher Scientific, 1:2000), or anti-myosin light chain 2 (Abcam, 1:1000), anti-ANP (Abcam, 1:500). For unconjugated primary antibodies, the following secondary antibodies were used for detection: goat anti-mouse IgG-APC (BD Pharmigen, 1:250), or donkey anti-rabbit IgG-AF488 (ThermoFisher Scientific, 1:1000). Detailed antibody information is described in the Key Resources Table. For cell-surface marker analyses, cells were stained for 30 min at 4° C. in FACS buffer consisting of PBS with 5% fetal calf serum (FCS) (Wisent) and 0.02% sodium azide. For intracellular staining, cells were fixed for 15 min at 4° C. with 4% PFA in PBS followed by permeabilization using 90% methanol for 20 min at 4° C. Cells were washed with PBS containing 0.5% BSA (Sigma) and stained with unconjugated primary antibodies in FACS buffer overnight at 4° C. Stained cells were washed with PBS with 0.5% BSA and stained with secondary antibodies in FACS buffer for 1 h at 4° C. Stained cells were analyzed using an LSR II Flow cytometer (BD). For cell sorting, cells were stained, washed and kept in IMDM with 0.2% KnockOut™ serum replacement and sorted using either Influx (BD), FACSAriaII (BD), MoFlo-XDP (BD) of FACSAria Fusion (BD) cells sorter at the Sickids/UHN flow cytometry facility. Data were analyzed using FlowJo software (Tree Star).
Initial experiments were set up to identify the signaling pathways that would promote the generation of a NKX2-5+ CD31+ cell that we propose represents the earliest stage of human endocardial development. The transgenic HES3-NKX2-5eGFP/w reporter line (Elliott et al., 2011, Nat. Methods, 8(12):1037-40) was used to allow for the identification of NKX2-5+ cells by flow cytometry. […]

[2] = system: NKX2-5+ CD31+ endocardial-like cells and SIRPA+ cardiomyocytes; assay: Co-culture of NKX2-5+ CD31+ endocardial-like cells (HES3-NKX2-5eGFP/w) with SIRPA+ cardiomyocytes
Procedure: (§1) For culture in the absence of cardiomyocytes, the endocardial or control endothelial cells (HES3-NKX2-5eGFP/w line) isolated at day 9 of differentiation were plated in a 96-well flat bottom microplate (Falcon) coated with Matrigel (25% v/v, Corning) at a density 2.5×10e4 cells per well in StemPro-34 supplemented with penicillin/streptomycin (1%, ThermoFisher), L-glutamine (2 mM, ThermoFisher), ascorbic acid (50 μg/ml, Sigma), monothioglycerol (50 μg/ml, Sigma), rhVEGFA (100 ng/ml, R&D) with or without rhBMP10 (10 ng/ml) or rhBMP4 (10 ng/ml). For co-culture of the two cell types, 5×10e4 hPSC-derived SIRPA+ cardiomyocytes (day 9) were mixed together with either 2.5×10e4 HES3-NKX2-5eGFP/w- or 5×10e4 HES2:RFP-derived endocardial or endothelial cells and cultured for 8 days in 96-well flat bottom microplates (Falcon) coated with Matrigel (25% v/v, Corning) in StemPro-34 supplemented with penicillin/streptomycin (1%, ThermoFisher), L-glutamine (2 mM, ThermoFisher), ascorbic acid (50 μg/ml, Sigma), monothioglycerol (50 μg/ml, Sigma) and rhVEGFA (100 ng/ml, R&D). For inhibition of the NRG-ERBB pathway lapatinib (10 μM, LC labs) was added to the media. Control cardiomyocytes were cultured as aggregates as described above in the same media with or without NRG1 (50 ng/ml). The cultures were incubated in a normoxic environment (5% CO2) and the media was changed every 2 days. […]

[3] = system: RFP+ CD31+ endocardial-like cells and SIRPA+ cardiomyocytes; assay: Co-culture of HES2-RFP CD31+ endocardial-like cells with HES2-GFP SIRPA+ cardiomyocytes; conditions: lapatinib 10 μM, 8 days co-culture, VEGFA 100 ng/ml
Procedure: as §1

[4] = system: NKX2-5+ CD31+ endocardial-like cells; assay: 8-day culture of sorted day 9 NKX2-5+ CD31+ endocardial-like or control endothelial cells with VEGFA and BMP
Procedure: For culture in the absence of cardiomyocytes, the endocardial or control endothelial cells (HES3-NKX2-5eGFP/w line) isolated at day 9 of differentiation were plated in a 96-well flat bottom microplate (Falcon) coated with Matrigel (25% v/v, Corning) at a density 2.5×10e4 cells per well in StemPro-34 supplemented with penicillin/streptomycin (1%, ThermoFisher), L-glutamine (2 mM, ThermoFisher), ascorbic acid (50 μg/ml, Sigma), monothioglycerol (50 μg/ml, Sigma), rhVEGFA (100 ng/ml, R&D) with or without rhBMP10 (10 ng/ml) or rhBMP4 (10 ng/ml). For co-culture of the two cell types, 5×10e4 hPSC-derived SIRPA+ cardiomyocytes (day 9) were mixed together with either 2.5×10e4 HES3-NKX2-5eGFP/w- or 5×10e4 HES2:RFP-derived endocardial or endothelial cells and cultured for 8 days in 96-well flat bottom microplates (Falcon) coated with Matrigel (25% v/v, Corning) in StemPro-34 supplemented with penicillin/streptomycin (1%, ThermoFisher), L-glutamine (2 mM, ThermoFisher), ascorbic acid (50 μg/ml, Sigma), monothioglycerol (50 μg/ml, Sigma) and rhVEGFA (100 ng/ml, R&D). For inhibition of the NRG-ERBB pathway lapatinib (10 μM, LC labs) was added to the media. Control cardiomyocytes were cultured as aggregates as described above in the same media with or without NRG1 (50 ng/ml). The cultures were incubated in a normoxic environment (5% CO2) and the media was changed every 2 days.
To further investigate differences between these pathway agonists, BMP10-induced NKX2-5+ CD31+ cells were cultured in the presence of different concentrations of either BMP4 or BMP10 for 8 days. VEGFA was added to maintain the endothelial phenotype of the cells during this culture period.

NKX2-5+ CD31+ cells [5] = assay: Generation of NKX2-5+ CD31+ cells from hPSC-derived cardiogenic mesoderm (flow cytometry); conditions: BMP alone (10 ng/ml) in the absence of bFGF; day 9

In the case of `Cc1c[nH]c(-c2cnc(NCCNc3ccc(C#N)cn3)nc2-c2ccc(Cl)cc2Cl)n1` [CHIR99021, reference compound], the “total number of NKX2-5+ CD31+ cells produced” value (NKX2-5+ CD31+ cells [1]; 1 μM CHIR99021 for 2, 4 or 6 days from day 3, day 9) is reported as “did not impact” and the “frequency of NKX2-5+ CD31+ cells” value (NKX2-5+ CD31+ cells [1]; 1 μM CHIR99021 for 6 days from day 3, day 9) is reported as “decrease”.
In the case of `Cc1ccc2nc(NC(=O)CSc3nc4c(c(=O)n3-c3ccccc3)SCC4)sc2c1` [IWP2, reference compound], the “total number of NKX2-5+ CD31+ cells” value (NKX2-5+ CD31+ cells [1]; IWP2 added for 4 or 6 days from day 3, day 9) is reported as “reduced” and the “frequency of NKX2-5+ CD31+ cells generated” value (NKX2-5+ CD31+ cells [1]; Wnt inhibition, 2 μM IWP2 for 2, 4 or 6 days from day 3, day 9 read-out) is reported as “significant reduction”.
With `c1ccc2c(-c3cnn4cc(-c5ccc(N6CCNCC6)cc5)cnc34)ccnc2c1` [LDN193189] the “NKX2-5 expression in endocardial cells” value ([2]; cells isolated from co-cultures and cells treated with BMP10, 8 days, different concentrations of LDN193189) was “partial downregulation”.
In the case of `CS(=O)(=O)CCNCc1ccc(-c2ccc3ncnc(Nc4ccc(OCc5cccc(F)c5)c(Cl)c4)c3c2)o1` [lapatinib], the “induction of the trabecular fate by NKX2-5+ CD31+ endocardial-like cells” value ([2]; lapatinib 10 μM, 8 days co-culture, VEGFA 100 ng/ml) is reported as “inhibited” and the “induction of trabecular myocardium markers by RFP+ CD31+ endocardial-like cells” value [3] is reported as “inhibited”.
With BMP10: Recombinant human BMP10 (R&D) the “proportion of NKX2-5+ CD31+ cells generated” value (NKX2-5+ CD31+ cells [1]; BMP 10 ng/ml paired with exogenous bFGF, day 9) was “significantly increased”, the “NRG1 expression in induced NKX2-5+ CD31+ population (RT-qPCR)” value (NKX2-5+ CD31+ cells [1]; BMP10-induced versus BMP4-induced cells) was “higher levels” and the “fraction of CD105+ cells” value (NKX2-5+ CD31+ cells [1]; BMP10-induced versus BMP4-induced or control endothelial populations) was “much larger fraction”. For the same molecule, the “total number of NKX2-5+ CD31+ cells at days 8 and 9” value (NKX2-5+ CD31+ cells [1]; BMP10-induced versus BMP4-treated populations) was “significantly higher”, the “day of emergence of NKX2-5+ CD31+ cells” value (NKX2-5+ CD31+ cells [1]; BMP agonist with bFGF, populations persisted to day 12) was 8 days and the “concentration inducing the highest frequency and number of NKX2-5+ CD31+ cells” value (NKX2-5+ CD31+ cells [1]; days 5-9, in presence of bFGF 50 ng/ml) was 10 ng/mL. The “NRG1 levels in cultured NKX2-5+ CD31+ cells” value ([4]; 8 days, BMP10 10 ng/ml versus BMP4 10 ng/ml, VEGFA 100 ng/ml) was “sustained higher levels”, the “maintaining the NKX2-5+ CD31+ cell phenotype” value ([4]; 8 days, VEGFA 100 ng/ml, all concentrations of agonist tested) was “more effective than BMP4” and the “NRG1 expression in control endothelial population” value ([4]; BMP10 added during 8-day culture) was “did not lead to the upregulation”. For the same molecule, the “populations containing CD31+ cells” value (NKX2-5+ CD31+ cells [5]) was “None”.
